The values that follow come from patent US7903239B2, “Porous photonic crystal with light scattering domains and methods of synthesis and use thereof” (priority 2004, dated 2011).

Bounds are passed on as bounds.

The subject of data set [1] is hepatocytes. As to the kind of experiment: Reflectance microscopy of non-incubated hepatocytes on porous Si photonic crystal. The class given is cell-based, rat. As to conditions: 200 μM Cd^2+, eighty-five min after introduction, cells not incubated. Here is the method: More particularly, measurement of light scattered from a monolayer of hepatocyte cells on a porous Si photonic crystal is used to measure changes in cellular morphology. Data were collected after hepatocytes were administered a toxic dose of aqueous cadmium chloride (200 μM). […] Upon exposure to Cd^2+, characteristic changes in morphology that accompany loss of viability, such as blebbing and increased granularity, are observed (FIG. 9b). The optical setup produces more dramatic images upon exposure to a toxic dose of Cd^2+. In this arrangement, cells appear with a color characteristic of the underlying photonic crystal, while the regions that are not covered with cells appear darker (FIG. 5a). After loss of viability, the cytoplasm appears brighter, leading to greater nuclear and cell boundary contrast (FIG. 5b).
Optical measurements. […] Images were processed on Metamorph and JImage. […] Pictures were obtained at time 0 and 85 minutes.

The subject of data set [2] is hepatocytes. As to conditions: Cd^2+ in the 50-400 μM range; cited from earlier work.
The subject of data set [3] is primary rat hepatocytes. As to the kind of experiment: Light scattering from hepatocytes seeded on a porous Si photonic crystal (CCD spectrometer, in incubator). It is filed as cell-based. The following applies: 50 μM Cd^2+.
Procedure: Hepatocytes were isolated from 2-3 month old adult female Lewis rats by collagenase perfusion as previously described. Hepatocytes were then seeded on the polystyrene-coated porous silicon samples or on tissue-culture polystyrene dishes.
Hepatocytes were then seeded on the activated polystyrene-coated chip.
Cell seeding. Porous Si photonic crystal samples were sterilized in a 35 mm dish with 2 mL of 100% ethanol for 1 hour. Ethanol was removed and the samples were allowed to dry in a sterile laminar-flow hood. The samples and dish were washed twice with sterile water. To improve adhesion, 2 mL of a 0.1 mg/mL solution of rat-tail collagen (collagen I) was added to the dish, and the samples were incubated at 37° C. for one h. The collagen-coated samples were then washed once with sterile water, and once with growth media. Media for all experiments was DMEM with high glucose (Invitrogen), 10% fetal bovine serum, supplemented with 0.5 U/mL insulin, 7 ng/mL glucagon, 7.5 mg/mL hydrocortisone, 10 U/mL penicillin, and 10 mg/mL streptomycin. Hepatocytes were isolated from 2-3 month old adult female Lewis rats by collagenase perfusion as previously described. Less than one hour after isolation, 1.25×10^6 cells per dish were seeded in 2 mL of media for scattering experiments and 6×10^5 cells per dish for microscope experiments. As the porous Si samples were smaller than the dish, some cells settled and attached to the polystyrene surface. Unattached cells were removed after one hour and dishes were incubated at 37° C., 5% CO2 for 24 hours to allow spreading before the start of observation.
Reflectance spectra were collected using an Ocean Optics S-2000 CCD spectrometer fitted with a microscope objective lens coupled to either a bifurcated fiber optic cable (for specular measurements) or a single fiber optic cable (for scattering measurements). […]
For another data set, the system named is rat hepatocyte cells. The experiment in a line: MTT cell viability assay. The following applies: 50 μM Cd^2+, after ~10 h. It is filed as cell-based. (Formazan colour is commonly taken as a measure of viable cells.)
The test system of data set [4] is primary rat hepatocytes. The experiment in a line: Phase-contrast microscopy of hepatocytes on tissue-culture polystyrene plates. The following applies: 50 μM Cd^2+. As to the method:
Optical measurements. Images for cells seeded on porous silicon photonic crystals were collected using a reflectance microscope and a 10× LWD objective with on-normal and off-normal illumination using a white light source. Phase contrast images for cells seeded on tissue cultured polystyrene multi-well plates were obtained on a Nikon TE200 microscope with a 10× objective and captured with a camera. Images were processed on Metamorph and JImage. […] Cells were seeded on the porous Si chips at less than 100% coverage so that the porous silicon background could provide contrast. In order to follow the same subset of cells throughout the course of morphology changes for the Cd^2+ toxicity studies, the cells were not incubated while monitoring with the microscope. Rather, cells were placed on a chip and Cd^2+ concentration was adjusted to a final concentration of 200 μM. Pictures were obtained at time 0 and 85 minutes.

Take `[Cl][Cd][Cl]` [Cd^2+, cadmium chloride]: the “hepatocytes that have lost viability” value with hepatocytes [1] is > 90%. The “time of cell damage (decrease in membrane and metabolic integrity)” value in the data set on hepatocytes [2] is on record as “within the first hour of exposure”. Further, in the data set with primary rat hepatocytes [3], the “time after which intensity of scattered light reaches a constant value” is on record as ~10 h, the “time after which relative scattered intensity shows a significant increase” value is recorded as ~2 h and the “time by which scattering changes precede first loss of viability in MTT stain” value is on record as ~2 h. In the data set on rat hepatocyte cells, the “viability according to MTT stain, % of the initial value” is ~50%. In the data set with primary rat hepatocytes [4], the “hepatocyte morphology by phase contrast” value is “granular appearance increases substantially, even after 2 h” and the “time by which most cellular features become indistinguishable” value is given as ≤ 14 h.
